Values joined by “and” are separate entries in the source; they are usually repeats but may differ in a detail not shown here. Equal entries are not always repeated.
What was measured:
[1] = biological target: T1, hP2X7R (Homo sapiens, UniProt Q99572); test: Ethidium bromide accumulation in hP2X7R-expressing HEK293 cells; assay type: cell-based; design: expressed in transfected cells; conditions: for mean % of maximum accumulation / MAX100 (% of maximum accumulation, replicates 1-3): BzATP 6 μM; for IC50: hP2X7R, ethidium bromide accumulation, mean ± SD, triplicate; for ΔΔGexp: relative to UB-ALT-P30, from experimental pIC50 values, T = 298 K; for MAX100 (% of maximum accumulation, replicates 1-3): single replicates
T1 sequence (Q99572 1-595): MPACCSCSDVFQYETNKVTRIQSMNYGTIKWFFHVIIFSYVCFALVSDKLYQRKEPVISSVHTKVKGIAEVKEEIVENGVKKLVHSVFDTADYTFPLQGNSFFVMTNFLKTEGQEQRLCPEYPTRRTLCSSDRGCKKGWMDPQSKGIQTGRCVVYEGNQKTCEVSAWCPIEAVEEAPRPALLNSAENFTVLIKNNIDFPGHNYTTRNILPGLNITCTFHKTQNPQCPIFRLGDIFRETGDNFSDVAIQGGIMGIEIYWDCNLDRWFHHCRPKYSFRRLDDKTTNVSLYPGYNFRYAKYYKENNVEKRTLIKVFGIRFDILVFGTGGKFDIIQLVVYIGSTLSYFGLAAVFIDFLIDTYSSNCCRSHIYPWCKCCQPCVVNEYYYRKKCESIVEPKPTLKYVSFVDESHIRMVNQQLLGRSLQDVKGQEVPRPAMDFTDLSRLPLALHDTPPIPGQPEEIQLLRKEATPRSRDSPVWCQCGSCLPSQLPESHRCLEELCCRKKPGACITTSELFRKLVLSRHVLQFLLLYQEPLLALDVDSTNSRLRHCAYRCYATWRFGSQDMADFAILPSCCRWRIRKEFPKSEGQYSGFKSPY
Procedure: Human P2X7R-expressing HEK293 cells were cultured in a humidified atmosphere of 5% CO2 at 37 °C in Dulbecco’s Modification of Eagle’s Medium (DMEM; Corning) supplemented with 10% (v/v) fetal bovine serum (Corning) and 1% (v/v) antibiotic–antimycotic (Gibco)[75]. To perform the assay, the DMEM was removed, and the HEK293 cells were washed with 3 mL of 1X DPBS (Dulbecco’s Phosphate-Buffered Saline; Corning). After the removal of DPBS solution, the cells were detached from the dish with 1 mL of trypsin/EDTA (Gibco), and the cells were collected by centrifugation. The cells (density of 2.25 × 10^7) were re-suspended in 4-(2-hydroxyethyl)-1-piperazineethanesulfonic acid (HEPES)-buffered salt solution consisting of 140 mM potassium chloride, 1 mM ethylene diamine tetraacetic acid (EDTA), 5 mM glucose, 20 mM HEPES, and 0.1 mM ethidium bromide (pH 7.4). The vehicles or appropriate range of concentrations of compounds (10 μL, pre-diluted in 10% (v/v) DMSO in DW from 10 mM stock) were added to each well of 96-well black plate (Corning), and 80 μL of the cell suspension was subsequently added to each well. BzATP (10 μL, pre-diluted in DW from 10 mM stock) was then added, and the final assay volume was maintained at 100 μL. After the incubation in 5% CO2 at 37 °C for 2 h, the ethidium dye uptake was detected by measuring the fluorescence (excitation wavelength of 530 nm and emission wavelength of 590 nm) of each well using a CHAMELEON™ Multi-Technology Plate Reader. The antagonistic activities of compounds are expressed as the percentages relative to the maximum accumulation of ethidium bromide observed in the control group with the stimulation of the hP2X7R by an agonist, BzATP. The IC50 values of compounds as antagonists were calculated using nonlinear regression analysis using OriginPro 9.1 software.

[2] = biological target: T1, hP2X7R; test: TEVC determination of antagonist binding kinetics in Xenopus oocytes; assay type: cell-based; design: expressed in transfected cells; host or cells: Xenopus laevis oocytes injected with capped cRNA (modified pUC19 vector, T7); conditions: single replicates
Procedure: Xenopus laevis frogs were from Nasco International (Fort Atkinson, WI) and kept at the Core Facility Animal Models (CAM) of the Biomedical Center (BMC) of LMU Munich, Germany (Az:4.3.2–5682/LMU/BMC/CAM) in accordance with the EU Animal Welfare Act. Ovaries were surgically extracted (ROB_54-011-AZ 2532.Vet_02-23-166), treated with collagenase (Nordmark, Uetersen, Germany 1.0–1.5 mg/mL, ≥2 at RT) and defolliculated (15-min treatment in Ca^2+-free oocyte Ringer (90 mM NaCl, 1 mM KCl, 2 mM MgCl2, 5 mM HEPES), respectively. 50 nL of cRNA (0.5 µg/µL) were injected using a Nanoject II injector (Science Products, Drummond) and oocytes were kept in ND96 (96 mM NaCl, 2 mM KCl, 1 mM MgCl2, 1 mM CaCl2, 5 mM HEPES, pH 7.4–7.5). The plasmid containing the hP2X7R was linearized with NotI-HF (NEB) and purified with the MinElute Reaction Cleanup Kit (Qiagen, Hilden, Germany). Capped cRNA was synthesized using the mMESSAGE mMACHINE™ T7 Transcription Kit (ThermoFisher Scientific, Schwerte, Germany) and dissolved in nuclease-free water (500 ng/µL). Injected oocytes were allowed to express for at least 36 hours.
Two-electrode voltage clamp recordings were performed at room temperature and a holding potential of −70 mV using a Turbo Tec-05X Amplifier (npi electronic, Tamm, Germany), a magnetic valve system, and CellWorks E 5.5.1 software. Currents were filtered at 1 kHz and digitized at 200 Hz. Electrode resistances were below 1.2 MΩ. […] Recordings were performed in ND96.
After obtaining reproducible agonist-evoked responses, solutions were switched to antagonist-containing recording solutions with and without ATP to determine association rates. Responses following antagonist application were normalized to the preceding, stabilized agonist responses. Dissociation was determined in 1- or 2 min intervals when currents were reduced to <10%. Association curves were fit to the data by the equation % Response = (100-Plateau)*exp(-kobs*Time) + Plateau, where Plateau indicates the response at equilibrium and kobs the experimentally determined on-rate. All data were analyzed using Prism software (GraphPad Software, Inc., Version 8.3.0, San Diego, CA) and are presented as means ± SD from at least three oocytes. […] The final concentration of DMSO in the recording solution was ≤1%.
Supplementary Fig. 10: Kinetics of ligands binding to the hP2X7R measured by TEVC. (A) […]
All data represented as mean ± S.D. with n=3, 7, 7, and 7 f or the experiments performed at 3 nM, 10 nM, 30 nM, and 100 nM […]
(B) Representative current traces for t he activation
(C) On- and off-r at e constants and Ki
Observed on- r at es kobs were determined by fitting the data (Fig. 4H, Supplementary Fig. 10A) to the function: % response = (100- Plateau)*exp(-kobs*time)+Plateau and plotted against the antagonist concentrations to obtain koff according to k obs=kon*F+koff. Assuming a (simplified) 1:1 binding model, of f-r at e constant koff and Ki values were estimated using the previous formulas as well as Ki=koff/kon. […]
determined by Ca2+ imaging (18 nM, Fig. 3B ) and the binding equilibrium reached at each […]
values of UB-MBX-46 c annot reflect an accurate value due to the nearly negligible dissociation on the timescale of the experiment. If k off was estimated based on the IC50 value (IC50 = koff/kon panel D), a more accurate koff value can be obtained. Numbers in square brackets are 95% Confidence Intervals. *values obtained from an extrapolated dose inhibition curve from D . (D) The plateau values, representing the binding equilibrium, were used to generate dose inhibition

[3] = antagonist concentration 3.2 (unit not given)
[4] = antagonist concentration 16 (unit not given)
[5] = antagonist concentration 80 (unit not given)
[6] = antagonist concentration 400 (unit not given)
[7] = antagonist concentration 2000 (unit not given)
[8] = antagonist concentration 10000 (unit not given)
[9] = antagonist concentration 100 (unit not given)
[10] = antagonist concentration 1000 (unit not given)

mean % of maximum accumulation [1, 3]	mean % of maximum accumulation [1, 4]	mean % of maximum accumulation [1, 5]	mean % of maximum accumulation [1, 6]	mean % of maximum accumulation [1, 7]	mean % of maximum accumulation [1, 8]	IC50 [1]	MAX100 (% of maximum accumulation, replicates 1-3) [1, 3]	MAX100 (% of maximum accumulation, replicates 1-3) [1, 4]	MAX100 (% of maximum accumulation, replicates 1-3) [1, 5]	MAX100 (% of maximum accumulation, replicates 1-3) [1, 6]	MAX100 (% of maximum accumulation, replicates 1-3) [1, 7]	MAX100 (% of maximum accumulation, replicates 1-3) [1, 8]	SMILES	ΔΔGexp [1]	further results
75.2635%	81.0675%	68.3254%	62.0321%	5.603%	-3.752%	477 ± 170 nM	66.4908 and 84.0361	77.5726 and 94.2771 and 71.3528	56.9921 and 86.4458 and 61.5385	60.1583 and 61.747 and 64.191	0.7916 and 7.53 and 8.488	-6.86 and -5.723 and 1.326	CC12CC3CC(C)(C1)CC(C(=O)NNc1ccccc1Cl)(C3)C2 [UB-ALT-P36]	1.43 ± 1.93 kcal/mol	–
–	–	–	–	–	5.192%	> 1000 nM	–	–	–	–	–	17.7966 and 0.7519 and -2.973	CC12CC3(C)CC(C)(C1)CC(C(=O)NNc1ccccc1Cl)(C2)C3 [UB-ALT-P37]	>1.88 kcal/mol	mean % of maximum accumulation [1, 9]: 69.1292%; mean % of maximum accumulation [1, 10]: 66.8307%; MAX100 (% of maximum accumulation, replicates 1-3) [1, 9]: 71.3983 and 82.2055 and 53.7838; MAX100 (% of maximum accumulation, replicates 1-3) [1, 10]: 82.6271 and 51.3784 and 66.4865
92.6488%	90.4406%	85.6943%	54.1625%	8.486%	7.125%	430 ± 64 nM	94.8207 and 85.2995 and 97.8261	88.8446 and 87.4773 and 95	92.8287 and 88.3848 and 75.8696	70.5179 and 47.1869 and 44.7826	13.1474 and 15.7895 and -3.478	12.9482 and 12.3412 and -3.913	O=C(NNc1ccccc1Cl)C12C3C4C5C3C1C5C42 (centres unmarked) [UB-ALT-P38]	1.36 ± 1.50 kcal/mol	–
–	–	–	–	–	–	–	–	–	–	–	–	–	O=C(NNc1ccccc1Cl)C12CC3CC(CC(C3)C1)C2 [UB-MALT-P30]	–	on-rate to hP2X7R, Response [%] ([2]; 3 nM, time 2 min): 96.4% and 100% and 92.9%; on-rate to hP2X7R, Response [%] ([2]; 3 nM, time 4 min): 96.4% and 97.5% and 92.9%; on-rate to hP2X7R, Response [%] ([2]; 3 nM, time 6 min): 96.4% and 97.5% and 92.9%; on-rate to hP2X7R, Response [%] ([2]; 10 nM, time 2 min): 93.8% and 78.8% and 87.9% and 77.9% and 84.1% and 80.6% and 76.1%; on-rate to hP2X7R, Response [%] ([2]; 10 nM, time 4 min): 83.3% and 71.2% and 77.8% and 75.3% and 77.2% and 75% and 67.4%; on-rate to hP2X7R, Response [%] ([2]; 10 nM, time 6 min): 77.1% and 65.4% and 72.7% (2×) and 74% and 66.7% and 65.2%; on-rate to hP2X7R, Response [%] ([2]; 10 nM, time 8 min): 58.3% and 61.5% and 69.7% and 72.7% (2×) and 66.7% and 63%; on-rate to hP2X7R, Response [%] ([2]; 10 nM, time 10 min): 45.8% and 57.7% and 67.7% and 72.7% (2×) and 66.7% and 65.2%; on-rate to hP2X7R, Response [%] ([2]; 10 nM, time 12 min): 39.6% and 55.8% and 65.7% and 72.7% (2×) and 66.7% and 65.2%; on-rate to hP2X7R, Response [%] ([2]; 30 nM, time 2 min): 54.3% and 59.3% and 51.2% and 37.5% and 42.9% and 45.7% and 46.9%; on-rate to hP2X7R, Response [%] ([2]; 30 nM, time 4 min): 45.7% and 44.4% and 19.5% and 33.3% (2×) and 34.3%; on-rate to hP2X7R, Response [%] ([2]; 30 nM, time 6 min): 42.4% and 37% and 17.1% and 20.8% and 28.6% and 25.7% and 28.3%; on-rate to hP2X7R, Response [%] ([2]; 30 nM, time 8 min): 40.2% and 33.3% and 14.6% and 20.8% and 23.8% and 22.9% and 22.4%; on-rate to hP2X7R, Response [%] ([2]; 30 nM, time 10 min): 39.1% and 33.3% and 9.8% and 29.2% and 23.8% and 22.9% and 22.4%; on-rate to hP2X7R, Response [%] ([2]; 100 nM, time 2 min): 20% and 4.2% and 3.2% and 8.2% and 20.5% and 17.6% and 21.1%; on-rate to hP2X7R, Response [%] ([2]; 100 nM, time 4 min): 6.7%; on-rate to hP2X7R, Response [%] ([2]; 100 nM, time 6 min): 6.7% and 1.4% and 0% and 2% and 10.8% and 10.6% and 10.5%
